From patent publication US5030760A, “Tetrahydrophthalimides, and their production and use” (Sumitomo Chemical Company, Ltd., priority 1981, dated 1991)

Assays:
Conditions in all cases: 3 weeks
rice plant = experiment: Test Example 7, flooded paddy pot dripping, phytotoxicity to rice plant; format: in vivo
Method: (§1) The application of the tetrahydrophthalimides (I) as herbicides will be illustratively shown in the following Examples wherein the phytotoxicity to cultivated plants and the herbicidal activity on weeds were evaluated as follows: the aerial parts of the test plants were cut off and weighed (fresh weight); the percentage of the fresh weight of the treated plant to that of the untreated plant was calculated with the latter fresh weight taken as 100; and the crop damage and the herbicidal activity were evaluated by the standard given in the table below. The rating values of phytotoxicity, 0 and 1, and those of herbicidal effect, 5 and 4, are generally regarded as satisfactory to protect cultivated plants and control weeds, respectively. The rating values in the paddy field test alone were calculated from the dry weight of the test plants.
(§2) Wagner's pots (1/5000 are) were filled with paddy field soil and water was poured therein to make a flooded condition. Rice seedlings of the 3-leaf stage were transplanted and tubers of slender spikerush and arrowhead and the seeds of barnyardgrass, monochoria and broad-leaved weed were sowed therein and grown for 5 days. When germination occurs, a designed amount of the test compound formulated into an emulsifiable concentrate according to Preparation Example 2 was applied to the pots by dripping. The test plants were grown for a further 3 weeks, and herbicidal activity and phytotoxicity were examined. The herbicidal activity was evaluated in figures ranging from 0 to 5. The phytotoxicity to the crop plants was also indicated on the same standard as that of the herbicidal activity.

barnyardgrass = experiment: Test Example 7, flooded paddy pot dripping, herbicidal activity; format: in vivo, Echinochloa crus-galli
Method: as §1, §2

monochoria = experiment: as above; format: in vivo, Monochoria vaginalis
Method: as §1, §2

slender spikerush = experiment: as above; format: in vivo, Eleocharis acicularis
Method: as §1, §2

arrowhead = experiment: as above; format: in vivo, Sagittaria pygmaea
Method: as §1, §2
Also: ranges in brackets are in %.

O=C1C2=C(CCCC2)C(=O)N1c1ccc(Cl)cc1F [A, 2-fluoro-4-chlorophenyltetrahydrophthalimide, reference compound]
3 (50-69): Herbicidal activity, Barnyardgrass (barnyardgrass; 5 g/are) | Herbicidal activity, Slender spikerush (slender spikerush; 5 g/are) | Herbicidal activity, Allowhead (arrowhead; 5 g/are) | Herbicidal activity, Allowhead (arrowhead; 10 g/are)
1 (10-29): Phytotoxicity, Rice plant (rice plant; 2.5 g/are) | Phytotoxicity, Rice plant (rice plant; 5 g/are) | Herbicidal activity, Barnyardgrass (barnyardgrass; 2.5 g/are)
4 (70-89): Herbicidal activity, Barnyardgrass (barnyardgrass; 10 g/are) | Herbicidal activity, Monochoria (monochoria; 2.5 g/are) | Herbicidal activity, Slender spikerush (slender spikerush; 10 g/are)
2 (30-49): Phytotoxicity, Rice plant (rice plant; 10 g/are) | Herbicidal activity, Slender spikerush (slender spikerush; 2.5 g/are) | Herbicidal activity, Allowhead (arrowhead; 2.5 g/are)
5 (90-100): Herbicidal activity, Monochoria (monochoria; 5 g/are) | Herbicidal activity, Monochoria (monochoria; 10 g/are)
